According to patent publication US7078401B2, “Thiophenylaminoimidazolines as IP antagonists” (Roche Palo Alto LLC, priority 2003, dated 2006):
Counter-ions that a name gives are not always drawn.

| SMILES | melting point [°C] |
| --- | --- |
| COc1ccc(Sc2ccc(NC(=N)N)cc2)cc1 [Example 2, N-[4-(4-Methoxy-phenylsulfanyl)-phenyl]-guanidine] | 140 to 141 |
| Clc1ccc(Sc2ccc(CNC3=NCCN3)cc2)cc1 (as salt: hydrochloride) [Compound 9, [4-(4-Chloro-phenylsulfanyl)-benzyl]-(4,5-dihydro-1H-imidazol-2-yl)-amine] | 127 to 130 |
| Clc1ccc(Sc2ccc(NC3=NCCCC3)cc2)cc1 (as salt: hydrochloride) [Compound 73, [4-(4-Chloro-phenylsulfanyl)-phenyl]-(3,4,5,6-tetrahydro-pyridin-2-yl)-amine] | 148 to 152 |
| COc1ccc(Sc2ccc(NC3=NCCN3)cc2)cc1 (as salt: hydrochloride) [Compound 5, (4,5-Dihydro-1H-imidazol-2-yl)-[4-(4-methoxy-phenylsulfanyl)-phenyl]-amine] | 149 to 150 |
